How the values were obtained:
wild type PKR [1] = molecular target: T1, wild type PKR (Homo sapiens, UniProt P30613); assay: PKR (wild type) enzyme AC50 assay, LDH/NADH-coupled, absorbance at 340 nm; assay type: biochemical; settings: Table 2, enzyme assay; for AC50: read-out: PKR WT AC50
Procedure: (§1) Example 11. PKR Mutant Assay
(§2) PKR or PKR mutant enzyme solution was diluted into a reaction mix, which contains 1× buffer (100 mM KCl, 50 mM Tris pH 7.5, 5 mM MgCl2) as well as PEP (conc depends on enzyme), 180 μM NADH, 0.5 units LDH, 1 mM DTT, 0.03% BSA; final assay concentrations after 1.11 fold dilution are indicated.
(§3) 2 μL of test compound was added into wells first, and then 180 μL reaction mix was added.
(§4) Reactions mixture with test compound was assembled except for ADP, and plates were stored for 60 minutes at room temperature.
(§5) 20 uL ADP was added to start reaction at room temperature and reaction progress was measured as changes in absorbance at 340 nm wavelength at room temperature.
(§6) Test Compound Preparation:
(§7) Test compound stock was made at 100× concentration in 100% DMSO (10 mM)
(§8) 1 to 3 dilutions were made for 11 points (i.e. 50 μl of first concentration added to 100 μl 100% DMSO to yield 3.33 mM, 50 μl of this added to 100 μl DMSO to yield 1.11 mM, and so forth) • 1 to 100 dilution into assay (2 μl in 200 μl) yielded starting concentration of 100 μM, decreasing 3 fold for 11 points.
(§9) Assay Buffer: 100 mM KCl, 50 mM Tris 7.5, 5 mM MgCl2, 1 mM DTT, 0.03% BSA
(§10) Reaction Mixture: PKR mutant enzyme: 40-400 ng/well; ADP: 0.2-1.65 mM; PEP: 0.1-0.5 mM; NADH: 180 μM; LDH: 0.5 units (Sigma #59023); DTT: 1 mM; BSA: 0.03%.

wild type PKR [2] = molecular target: T1, wild type PKR; assay: Cell based ATP assay in purified red blood cells (Cell-Titer-Glo); design: endogenous in cells; host or cells: purified red blood cells from healthy volunteers; settings: Table 2; RBCs, overnight at 37° C., ATP levels
Procedure: Example 16. Red Blood Cell (RBC) Purification
Fresh blood drawn from healthy volunteers into K2EDTA tubes was collected. Whole blood was pelleted by spinning at 500 g for 10 minutes. Cut transfusion bag port off of Purecell leukocyte reduction neofilter (Fisher NC0267633) one (1) inch above filter. Attach a 10 ml syringe barrel to the remaining cut tubing attached to neofilter. The plasma layer was removed from the pellet of the whole blood and the pellet was resuspended in 2× volume of phosphate buffered saline (PBS). Transfer 9 ml re-suspended blood cell pellet to prepared 10 ml syringe that is attached to the neofilter. Allow whole blood to gravity flow through filter until all fluid runs through upper tubing into filter disc. Add plunger to the syringe, remove syringe from clamp and invert the filter, then plunge air through the syringe filter system. Using a new 5 ml syringe, remove filtered RBCs from the bag by the syringe port and transfer purified RBCs to a 5 ml snap cap tube that has been incubated on ice. Spin 5 ml snap cap tube at 500 g for 10 minutes at 15 C, aspirate supernatant and resuspend in AGAM (1×PBS, 1% glucose, 170 mg/L adenine, 5.25 g/L mannitol) at a density of 4×10^9 cells/mL.
Example 17. Cell Based ATP Assay
For cell based ATP assays, the compound as described herein was prepared in 100% DMSO as a 10 mM stock. Serial dilutions (1:4) were performed in 96-well V-bottom storage plate and then added 1:100 to 96-well V-bottom plates containing AGAM. RBCs were diluted in AGAM media to a density of 1×10^7 cells/mL before added 90 μL/well to black clear bottom assay plates (final compound concentration at 0.1% DMSO concentration). Assay plates were sealed using aluminum foil seals and incubated overnight at 37° C. in a humidified chamber. ATP levels were read out using Cell-Titer-Glo (Promega).

PKR R510Q = PKR R510Q (Homo sapiens, UniProt P30613, R510Q); assay: PKR mutant assay (R510Q), AC50, LDH/NADH-coupled, absorbance at 340 nm; assay type: biochemical; settings: Table 2, enzyme assay; for AC50: read-out: PK R510Q AC50
Sequence of PKR R510Q (P30613 whole entry R510Q): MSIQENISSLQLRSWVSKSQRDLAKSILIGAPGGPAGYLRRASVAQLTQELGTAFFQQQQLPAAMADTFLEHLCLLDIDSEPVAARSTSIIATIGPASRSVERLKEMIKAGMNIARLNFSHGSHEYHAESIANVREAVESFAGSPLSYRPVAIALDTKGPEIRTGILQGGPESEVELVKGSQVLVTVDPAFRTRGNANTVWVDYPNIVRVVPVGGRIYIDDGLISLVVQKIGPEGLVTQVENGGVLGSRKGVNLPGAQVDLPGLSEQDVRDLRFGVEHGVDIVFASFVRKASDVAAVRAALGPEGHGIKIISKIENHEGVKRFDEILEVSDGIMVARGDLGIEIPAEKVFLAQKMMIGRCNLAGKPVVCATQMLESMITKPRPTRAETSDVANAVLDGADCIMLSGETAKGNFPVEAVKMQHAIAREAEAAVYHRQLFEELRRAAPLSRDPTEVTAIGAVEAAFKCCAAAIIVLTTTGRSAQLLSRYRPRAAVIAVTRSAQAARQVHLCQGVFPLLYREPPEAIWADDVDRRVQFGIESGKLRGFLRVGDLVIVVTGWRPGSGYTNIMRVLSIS
Procedure: as §1, §2, §3, §4, §5, §6, §7, §8, §9, §10

PKR K410E = PKR K410E (Homo sapiens, UniProt P30613, K410E); assay: PKR mutant assay (K410E), AC50, LDH/NADH-coupled, absorbance at 340 nm; assay type: biochemical; settings: Table 2; enzyme assay
Sequence of PKR K410E (P30613 whole entry K410E): as the sequence (P30613 whole entry R510Q) above, with K410E, Q510R counted along it
Procedure: as §1, §2, §3, §4, §5, §6, §7, §8, §9, §10

T1 sequence (P30613 whole entry): as the sequence (P30613 whole entry R510Q) above, with Q510R counted along it

| AC50 (wild type PKR [1]) [nM] | AC50 (wild type PKR [2]) [nM] | AC50 (PKR R510Q) [nM] | AC50 (PKR K410E) [nM] | Cell based ATP assay AC50 (wild type PKR [2]) | PKR WT AC50 (wild type PKR [1]) | PK R510Q AC50 (PKR R510Q) | Compound |
| --- | --- | --- | --- | --- | --- | --- | --- |
| < 300 | ≤ 1000 | < 300 | < 300 | – | – | – | COc1cccc(Cn2ncc3c4sc(Cc5ccc(C(F)(F)F)cc5)nc4n(C)c3c2=O)c1 [Compound 41] |
| > 800 | > 1000 | > 800 | > 800 | – | – | – | Cc1nc2c(s1)c1cnn(Cc3c[nH]cn3)c(=O)c1n2C [Compound 42] |
| > 800 | – | 301 to 800 | > 800 | No Fit | – | – | COC(=O)c1nc2c(s1)c1cnn(Cc3cccc(OC)c3)c(=O)c1n2C [Compound 43] |
| > 800 | > 1000 | > 800 | > 800 | – | – | – | Cc1nc2c(s1)c1cnn(Cc3ccc(CO)cc3)c(=O)c1n2C [Compound 44] |
| < 300 | ≤ 1000 | < 300 | < 300 | – | – | – | Cc1nc2c(s1)c1cnn(Cc3cccc(CO)c3)c(=O)c1n2C [Compound 45] |
| > 800 | > 1000 | > 800 | > 800 | – | – | – | Cc1nc2c(s1)c1cnn(CCCO)c(=O)c1n2C [Compound 46] |
| > 800 | – | > 800 | > 800 | No Fit | – | – | Cc1nc2c(s1)c1cnn(Cc3cccc([N+](=O)[O-])c3)c(=O)c1n2C [Compound 47] |
| – | – | > 800 | > 800 | No Fit | No Fit | – | Cc1nc2c(s1)c1cnn(Cc3ccc([N+](=O)[O-])cc3)c(=O)c1n2C [Compound 48] |
| > 800 | > 1000 | > 800 | > 800 | – | – | – | Cc1nc2c(s1)c1cnn(Cc3ccc(N)cc3)c(=O)c1n2C [Compound 49] |
| > 800 | – | > 800 | > 800 | No Fit | – | – | COc1cccc(Cn2ncc3c4sc(CC5CCCCC5)nc4n(C)c3c2=O)c1 [Compound 50] |
| < 300 | ≤ 1000 | < 300 | < 300 | – | – | – | COc1cccc(Cn2ncc3c4sc(CO)nc4n(C)c3c2=O)c1 [Compound 51] |
| < 300 | ≤ 1000 | < 300 | < 300 | – | – | – | COc1cccc(Cn2ncc3c4sc(C(C)O)nc4n(C)c3c2=O)c1 (stereo not drawn) [Compound 52] |
| < 300 | > 1000 | < 300 | < 300 | – | – | – | COc1cccc(Cn2ncc3c4sc(C(F)(F)F)nc4n(C)c3c2=O)c1 [Compound 53] |
| > 800 | – | – | > 800 | No Fit | – | No Fit | Cc1nc2c(s1)c1cnn(CCOCCO)c(=O)c1n2C [Compound 54] |
| 301 to 800 | > 1000 | 301 to 800 | > 800 | – | – | – | COc1cccc(Cn2ncc3c4sc(C(=O)c5cccc(O)c5)nc4n(C)c3c2=O)c1 [Compound 55] |
| 301 to 800 | > 1000 | < 300 | < 300 | – | – | – | CC(=O)c1cccc(Cn2ncc3c4sc(C)nc4n(C)c3c2=O)c1 [Compound 56] |
| < 300 | ≤ 1000 | < 300 | < 300 | – | – | – | Cc1nc2c(s1)c1cnn(Cc3cccc(C(C)N)c3)c(=O)c1n2C (stereo not drawn) [Compound 57] |
| < 300 | > 1000 | < 300 | < 300 | – | – | – | Cc1nc2c(s1)c1cnn(Cc3cccc(CN)c3)c(=O)c1n2C [Compound 58] |
| < 300 | ≤ 1000 | < 300 | < 300 | – | – | – | COc1cccc(Cn2ncc3c4sc(Cc5ccc(F)cc5)nc4n(C)c3c2=O)c1 [Compound 59] |
| < 300 | ≤ 1000 | < 300 | < 300 | – | – | – | Cc1nc2c(s1)c1cnn(Cc3ccc4cc[nH]c4c3)c(=O)c1n2C [Compound 60] |

| AC50 (wild type PKR [1]) [nM] | AC50 (wild type PKR [2]) [nM] | AC50 (PKR R510Q) [nM] | AC50 (PKR K410E) [nM] | Cell based ATP assay AC50 (wild type PKR [2]) | PKR WT AC50 (wild type PKR [1]) | PK R510Q AC50 (PKR R510Q) | Compound |
| --- | --- | --- | --- | --- | --- | --- | --- |
| > 800 | – | > 800 | > 800 | No Fit | – | – | Cc1nc2c(s1)c1cnn(Cc3ccc4[nH]c(=O)[nH]c4c3)c(=O)c1n2C [Compound 61] |
| < 300 | ≤ 1000 | < 300 | < 300 | – | – | – | COc1cccc(Cn2ncc3c4sc(C(C)=O)nc4n(C)c3c2=O)c1 [Compound 62] |
| < 300 | > 1000 | < 300 | < 300 | – | – | – | COc1cccc(Cn2ncc3c4sc(C(C)(C)O)nc4n(C)c3c2=O)c1 [Compound 63] |
| < 300 | ≤ 1000 | < 300 | < 300 | – | – | – | COc1cccc(Cn2ncc3c4sc(Cc5ccc(C#N)cc5)nc4n(C)c3c2=O)c1 [Compound 64] |
| > 800 | > 1000 | 301 to 800 | 301 to 800 | – | – | – | Cc1nc2c(s1)c1cnn(Cc3cccc4cn[nH]c34)c(=O)c1n2C [Compound 65] |
| > 800 | – | – | > 800 | No Fit | – | No Fit | CCOC(=O)Cn1ncc2c3sc(C)nc3n(C)c2c1=O [Compound 66] |
| > 800 | – | – | > 800 | No Fit | – | No Fit | Cc1nc2c(s1)c1cnn(CCO)c(=O)c1n2C [Compound 67] |
| < 300 | ≤ 1000 | < 300 | < 300 | – | – | – | Cc1nc2c(s1)c1cnn(Cc3cc[nH]n3)c(=O)c1n2C [Compound 68] |
| > 800 | > 1000 | 301 to 800 | > 800 | – | – | – | CNc1ccc(Cn2ncc3c4sc(C)nc4n(C)c3c2=O)cc1 [Compound 69] |
| < 300 | ≤ 1000 | < 300 | < 300 | – | – | – | CNc1cccc(Cn2ncc3c4sc(C)nc4n(C)c3c2=O)c1 [Compound 70] |
| 301 to 800 | ≤ 1000 | 301 to 800 | 301 to 800 | – | – | – | Cn1c2nc([S+](C)[O-])sc2c2cnn(Cc3cccc4[nH]ncc34)c(=O)c21 (stereo not drawn) [Compound 71] |
| > 800 | > 1000 | > 800 | > 800 | – | – | – | Cc1nc2c(s1)c1cnn(Cc3cn[nH]c3)c(=O)c1n2C [Compound 72] |
| > 800 | > 1000 | 301 to 800 | 301 to 800 | – | – | – | Cc1nc2c(s1)c1cnn(Cc3ccc4[nH]cnc4c3)c(=O)c1n2C [Compound 73] |
| < 300 | ≤ 1000 | < 300 | < 300 | – | – | – | Cc1nc2c(s1)c1cnn(Cc3cccc(N)n3)c(=O)c1n2C [Compound 74] |
| > 800 | ≤ 1000 | – | > 800 | – | – | No Fit | Cn1c2nc([S+](C)[O-])sc2c2cnn(Cc3ccc(C#N)cc3)c(=O)c21 (stereo not drawn) [Compound 75] |
| > 800 | ≤ 1000 | < 300 | < 300 | – | – | – | Cc1nc2c(s1)c1cnn(Cc3cccc4c3cnn4C)c(=O)c1n2C [Compound 76] |
| < 300 | ≤ 1000 | < 300 | < 300 | – | – | – | Cn1c2nc(Cc3ccc(O)cc3)sc2c2cnn(Cc3cccc4[nH]ncc34)c(=O)c21 [Compound 77] |
| > 800 | ≤ 1000 | > 800 | > 800 | – | – | – | Cn1c2nc([S+](C)[O-])sc2c2cnn(Cc3ccnc(N)c3)c(=O)c21 (stereo not drawn) [Compound 78] |
| < 300 | ≤ 1000 | < 300 | < 300 | – | – | – | Cn1c2nc([S+](C)[O-])sc2c2cnn(Cc3cccc4c3CCN4)c(=O)c21 (stereo not drawn) [Compound 79] |

From patent publication US11957680B2, “Pyruvate kinase activators for use in treating blood disorders” (Agios Pharmaceuticals, Inc., priority 2017, dated 2024)
